Measurements from patent publication US20240261443A1, “COMPOUNDS AND COMPOSITIONS USEFUL AS RADIOTRACERS FOR IMAGING OF REACTIVE OXIDATIVE SPECIES” (Wake Forest University Health Sciences, priority 2019, published 2024).

What was measured:
normal organs = test: Toxicity observation in blocking studies, KS1 15 mg/kg; type: in vivo; conditions: 15 mg/kg injected
Method: Athymic nude mice (Taconic Farms) were housed in a pathogen-free facility of the Animal Research Program at Wake Forest School of Medicine under a 12:12-h light/dark cycle and fed ad libitum. All animal experiments were conducted under IACUC approved protocols in compliance with the guidelines for the care and use of research animals established by Wake Forest Medical School Animal Studies Committee. PC3 cells (1×10^5 cells suspended in 10 μL matrigel) were implanted in the left flank of nude mice (25-30 g) as described previously. […] Samples of tumor, blood, brain, heart, lung, liver, spleen, pancreas, kidney, muscle and bone were harvested, weighed, and gamma counted with a standard dilution of the injectate (Chu et al., Development of a PET Radiotracer for Noninvasive Imaging of the Reactive Oxygen Species, Superoxide, in vivo. Organic & biomolecular chemistry. 2014; 12:4421-31; Sai et al., Radiolabeling and initial biological evaluation of [(18)F]KBM-1 for imaging RAR-α receptors in neuroblastoma. Bioorganic & medicinal chemistry letters. 2017; 27:1425-7; Kumar et al., Radiosynthesis and in Vivo Evaluation of [11C]MPC-6827, the First Brain Penetrant Microtubule PET Ligand. […] The percentage of the injected dose per gram of tissue (% ID/g) was calculated.

PC3 tumors = test: Standard biodistribution in PC3 tumor-bearing mice; type: in vivo
Method: Athymic nude mice (Taconic Farms) were housed in a pathogen-free facility of the Animal Research Program at Wake Forest School of Medicine under a 12:12-h light/dark cycle and fed ad libitum. All animal experiments were conducted under IACUC approved protocols in compliance with the guidelines for the care and use of research animals established by Wake Forest Medical School Animal Studies Committee. PC3 cells (1×10^5 cells suspended in 10 μL matrigel) were implanted in the left flank of nude mice (25-30 g) as described previously. Mice bearing subcutaneous human PCa PC3 tumors were separated into two groups for baseline and blockade studies (n=3/group) and underwent microPET imaging under ˜1% isoflurane-oxygen anesthesia (Reuter et al., Oxidative stress, inflammation, and cancer: How are they linked? Free radical biology & medicine. 2010; 49:1603-16. doi:10.1016/j.freeradbiomed; Sosa et al., Oxidative stress and cancer: An overview. Ageing Research Reviews. 2013; 12:376-90; Singh et al., Silibinin suppresses in vivo growth of human prostate carcinoma PC-3 tumor xenograft. Carcinogenesis. 2007; 28:2567-74). Mice were intravenously injected with ˜100±10 μCi of [^18F]KS1 and 45 min later were scanned for 20 min using a TriFoil microPET scanner. KS1 (15 mg/kg) was used as a blocking agent and was injected 45 min before the radiotracer injection. Standard biodistribution studies were conducted in mice bearing PCa tumors to confirm in vivo binding of [^18F]KS1. Mice were intravenously injected with [^18F]KS1 (˜100 μCi), and euthanized after 30 min and 60 min of tracer injections (3 mice/time point). Samples of tumor, blood, brain, heart, lung, liver, spleen, pancreas, kidney, muscle and bone were harvested, weighed, and gamma counted with a standard dilution of the injectate (Chu et al., Development of a PET Radiotracer for Noninvasive Imaging of the Reactive Oxygen Species, Superoxide, in vivo. Organic & biomolecular chemistry. 2014; 12:4421-31; Sai et al., Radiolabeling and initial biological evaluation of [(18)F]KBM-1 for imaging RAR-α receptors in neuroblastoma. Bioorganic & medicinal chemistry letters. 2017; 27:1425-7; Kumar et al., Radiosynthesis and in Vivo Evaluation of [11C]MPC-6827, the First Brain Penetrant Microtubule PET Ligand. Journal of Medicinal Chemistry. 2018; 61:2118-23). The percentage of the injected dose per gram of tissue (% ID/g) was calculated.

[1] = Ex vivo biodistribution in normal ICR mice; conditions: for blood uptake / kidney uptake / liver uptake: in %ID/g (unit assumed)
Ex vivo serum stability = type: in vitro ADME; conditions: human serum, 37° C., after 120 min of tracer synthesis
Method: The ex vivo serum stability of [^18F]KS1 and [^18F]KS2 were analyzed in human serum samples, following previously published methods (Sai et al., Peptide-based PET imaging of the tumor restricted IL13RA2 biomarker. Oncotarget 2017, 5; Sattiraju et al., IL13RA2 targeted alpha particle therapy against glioblastoma. Journal of Nuclear Medicine 2016, 57 (supplement 2), 634; Wang et al., Evaluation of F-18-labeled amino acid derivatives and [18F]FDG as PET probes in a brain tumor-bearing animal model. Nuclear Medicine and Biology 2005, 32 (4), 367-375). Briefly, radiotracer was added to the human serum sample, and incubated at 37° C. Radioactive serum mixture was injected into the QC-HPLC system at 5 min, 30 min, 1 h, 1.5 h, 2 h, 2.5 h, and 3 h post radiotracer synthesis. Radiolysis through defluorination and/or oxidation of the radiotracers (if any) can be seen as new radiochemical peaks at different retention times (Rt) than the original product peak (Jin et al., A promising F-18 labeled PET radiotracer (-)-[18F]VAT for assessing the VAChT in vivo. Journal of Nuclear Medicine 2015, 56 (supplement 3); Koglin et al., [F-18]BAY 85-8050: A novel tumor specific probe for PET imaging-Preclinical results. Journal of Nuclear Medicine 2010, 51 (supplement 2), 1535; […] et al., Imaging COX-2 expression in cancer using PET/SPECT radioligands: current status and future directions. […]

increased tumor uptake from 30 min to 60 min (PC3 tumors; 30 to 60 min post injection) [fold] | tumor: muscle (target: non-target) ratio (PC3 tumors; 30 min) | bone uptake (PC3 tumors; 30 min post injection) [% ID/g] | tumor uptake (PC3 tumors; 30 min post injection) [% ID/g] | tumor: muscle (target: non-target) ratio (PC3 tumors; 60 min) | bone uptake (PC3 tumors; 60 min post injection) [% ID/g] | tumor uptake (PC3 tumors; 60 min post injection) [% ID/g] | increase in the tumor: muscle ratio (PC3 tumors; from 30 min to 60 min) [%] | blood uptake ([1]; 5 min post injection) | kidney uptake ([1]; 5 min post injection) | liver uptake ([1]; 5 min post injection) | blood uptake ([1]; 120 min post injection) | kidney uptake ([1]; 120 min post injection) | liver uptake ([1]; 120 min post injection) | bone uptake ([1]; normal ICR mice) | brain uptake ([1]; normal ICR mice) | intact in serum (Ex vivo serum stability) [%] | Structure (SMILES) | toxicity in normal organs (normal organs)
– | – | – | – | – | – | – | – | – | – | – | – | – | – | – | – | – | O=C1O/C(=C/CCl)C(O)=C1OCc1ccc(OCCF)cc1 [KS1, (E)-5-(2-chloroethylidene)-3-(4-(2-fluoroethoxy)benzyloxy)-4-hydroxyfuran-2(5H)-one] | did not observe any toxicity
~1.7 | 4.31 | 1.741±0.71 | 4.23±0.531 | 8.84 | 1.381±0.561 | 6.81±0.33 | > 50 | 1.361±0.71 | 14.793±1.33 | 9.72±2.55 | 0.31±0.071 | 3.23±1.30 | 2.124±1.12 | No significant bone uptake | Poor brain uptake | ~90 | O=C1O/C(=C/CCl)C(O)=C1OCc1ccc(OCC[18F])cc1 [[^18F]KS1] | –
